Reference: patent US20110059948A1, “QUINOLINE, NAPHTHALENE AND CONFORMATIONALLY CONSTRAINED QUINOLINE OR NAPHTHALENE DERIVATIVES AS ANTI-MYCOBACTERIAL AGENTS” (priority 2008, published 2011)

How the values were obtained:
[1] = test system: clinical isolate MDR (BTB 08-072); assay: microbe, parasite or virus in culture; format: cell-based, Mycobacterium tuberculosis; details: for MIC against MDR-TB (BTB 08-072), strain resistant to all front line drugs: agar dilution, Middlebrook 7H10; for MIC: Mycobacterium tuberculosis, read-out: MIC against MDR-TB (BTB 08-072), strain resistant to all front line drugs
[2] = test system: clinical isolates resistant to one or more standard antitubercular drugs (MDR-TB strains); assay: microbe, parasite or virus in culture; format: cell-based, Mycobacterium tuberculosis; details: for MIC M. tuberculosis Resistant (n = 10): clinical isolates, n = 10 strains tested

| Compound | MIC against MDR-TB (BTB 08-072), strain resistant to all front line drugs [1] | MIC M. tuberculosis Resistant (n = 10) [2] | MIC [1] | MIC ([2]; Mycobacterium tuberculosis, read-out: MIC M. tuberculosis Resistant (n = 10)) |
| --- | --- | --- | --- | --- |
| CC(c1cc(F)ccc1Oc1nc2ccc(-n3cc(-c4ccccc4)nn3)cc2cc1Cc1ccccc1)n1ccnc1 (centres unmarked) [Example 23] | >6.25 µg/mL | <6.25 µg/mL | – | – |
| COc1cccc(NC(=O)Nc2ccc3nc(Oc4ccc(F)cc4C(C)O)c(Cc4ccccc4)cc3c2)c1 (centres unmarked) [Example 26] | >4.0 µg/mL | <4.0 µg/mL | – | – |
| CC(O)c1cc(F)ccc1Oc1nc2ccc(NC(=O)Nc3cccc([N+](=O)[O-])c3)cc2cc1Cc1ccccc1 (centres unmarked) [Example 31] | >6.25 µg/mL | <6.25 µg/mL | – | – |
| ON=C1c2ccccc2-c2c1c(N1CCN(c3ccccn3)CC1)nc1ccc(Br)cc21 [Example 134] | >6.25 µg/mL | <6.25 µg/mL | – | – |
| NNC(=O)c1ccncc1 [Isoniazid, reference compound] | – | – | > 16 µg/mL | > 16 µg/mL |
| CO[C@H]1/C=C/O[C@@]2(C)Oc3c(C)c(O)c4c(O)c(c(/C=N/N5CCN(C)CC5)c(O)c4c3C2=O)NC(=O)/C(C)=C\C=C\[C@H](C)[C@H](O)[C@@H](C)[C@@H](O)[C@@H](C)[C@H](OC(C)=O)[C@@H]1C [Refampin, Rifampicin, reference compound] | – | – | > 16 µg/mL | – |
